Results: patent US7435805B2, “O-alkyl macrolide and azalide derivatives and regioselective process for their preparation” (GlaxpSmithkline Istrazivacki, priority 2003, dated 2008)
Converted amounts (≈) assume the structure as drawn.

How the values were obtained:
S. aureus B0329 = assay: microtiter broth serial dilution MIC, S. aureus B0329; format: cell-based, Staphylococcus aureus; conditions: unit assumed
Source text: (§1) In particular, the compounds of the invention may be active against strains of Staphylococcus aureus, Streptococcus pneumoniae, Moraxella catarrhalis, Streptococcus pyogenes, or Haemophilus influenzae. […] (Table 1.)

S. pneumoniae B0541 = assay: microtiter broth serial dilution MIC, S. pneumoniae B0541; format: cell-based, Streptococcus pneumoniae; conditions: unit assumed
Source text: as §1

S. pneumoniae B0326 M = assay: microtiter broth serial dilution MIC, S. pneumoniae B0326 M; format: cell-based, Streptococcus pneumoniae; conditions: unit assumed
Source text: as §1

S. pyogenes B0542 = assay: microtiter broth serial dilution MIC, S. pyogenes B0542; format: cell-based, Streptococcus pyogenes; conditions: unit assumed
Source text: as §1

S. pyogenes B0543 iMLS = assay: microtiter broth serial dilution MIC, S. pyogenes B0543 iMLS; format: cell-based, Streptococcus pyogenes; conditions: S. pyogenes B0543 iMLS (inducible resistant strain); unit assumed
Source text: as §1

S. pyogenes B0545 M = assay: microtiter broth serial dilution MIC, S. pyogenes B0545 M; format: cell-based, Streptococcus pyogenes; conditions: S. pyogenes B0545 M (efflux resistant strain); unit assumed
Source text: as §1

M. catarrhalis B0324 = assay: microtiter broth serial dilution MIC, M. catarrhalis B0324; format: cell-based, Moraxella catarrhalis; conditions: unit assumed
Source text: as §1

H. influenzae B0529 = assay: microtiter broth serial dilution MIC, H. influenzae B0529; format: cell-based, Haemophilus influenzae; conditions: unit assumed
Source text: as §1

E. coli B0001 = assay: microtiter broth serial dilution MIC, E. coli B0001; format: cell-based; conditions: unit assumed
Source text: as §1

Compound | MIC (S. aureus B0329) [µg/mL] | MIC (S. pneumoniae B0541) [µg/mL] | MIC (S. pneumoniae B0326 M) [µg/mL] | MIC (S. pyogenes B0542) [µg/mL] | MIC (S. pyogenes B0543 iMLS) [µg/mL] | MIC (S. pyogenes B0545 M) [µg/mL] | MIC (M. catarrhalis B0324) [µg/mL] | MIC (H. influenzae B0529) [µg/mL] | MIC (E. coli B0001) [µg/mL]
8a-Aza-8a-homoerythromycin | 2 | 0.125 | 64 | 0.25 | 8 | 32 | 2 | 1 | 16
CC[C@H]1OC(=O)[C@H](C)[C@@H](O[C@H]2C[C@@](C)(OC)[C@@H](O)[C@H](C)O2)[C@H](C)[C@@H](O[C@@H]2O[C@H](C)C[C@H](N(C)C)[C@H]2O)[C@](C)(O)C[C@@H](C)CN[C@H](C)[C@@H](O)[C@]1(C)O [9-Deoxo-9a-aza-9a-homoerythromycin] | 4 (≈ 5.44 µM) | 0.25 (≈ 0.34 µM) | 16 (≈ 21.8 µM) | 0.125 (≈ 0.17 µM) | 32 (≈ 43.5 µM) | 16 (≈ 21.8 µM) | 1 (≈ 1.36 µM) | 0.5 (≈ 0.68 µM) | 4 (≈ 5.44 µM)
CC[C@H]1OC(=O)[C@H](C)[C@@H](O[C@H]2C[C@@](C)(OC)[C@@H](O)[C@H](C)O2)[C@H](C)[C@@H](O[C@@H]2O[C@H](C)C[C@H](N(C)C)[C@H]2O)[C@](C)(O)C[C@@H](C)CN[C@H](C)[C@@H](OC)[C@]1(C)O [Ex. 3, 11-O-METHYL-9-DEOZO-9A-AZA-9A-HOMOERYTHROMYCIN] | 1 (≈ 1.34 µM) | 0.125 (≈ 0.167 µM) | 8 (≈ 10.7 µM) | 0.125 (≈ 0.167 µM) | 16 (≈ 21.4 µM) | 4 (≈ 5.34 µM) | 0.125 (≈ 0.167 µM) | 0.5 (≈ 0.668 µM) | 2 (≈ 2.67 µM)
CC[C@H]1OC(=O)[C@H](C)[C@@H](O[C@H]2C[C@@](C)(OC)[C@@H](O)[C@H](C)O2)[C@H](C)[C@@H](O[C@@H]2O[C@H](C)C[C@H](N(C)C)[C@H]2O)[C@](C)(O)C[C@@H](C)NC(=O)[C@H](C)[C@@H](OC)[C@]1(C)O [Ex. 5, 11-O-METHYL-8A-AZA-8A-HOMOERYTHROMYCIN] | 0.5 (≈ 0.655 µM) | 0.125 (≈ 0.164 µM) | 32 (≈ 41.9 µM) | 0.125 (≈ 0.164 µM) | 4 (≈ 5.24 µM) | 16 (≈ 21 µM) | 0.125 (≈ 0.164 µM) | 1 (≈ 1.31 µM) | 16 (≈ 21 µM)
